Data: a compilation of properties of binary mixtures (doi:10.1016/j.molliq.2016.07.039)

Experiment: xn = mol fraction of the nth substance listed
Settings: 101 kPa

CC[N+](CC)(CC)CC.[Cl-] + CC(=O)CCC(=O)O
x1 = 0.25
Settings	electrical conductivity [S/m]	viscosity [mPa·s]
293.15 K	0.075	130.1
298.15 K	0.105	–
303.15 K	0.138	69.8
308.15 K	0.172	–
313.15 K	0.215	39.1
318.15 K	0.265	–
323.15 K	0.318	27.1
328.15 K	0.373	–
333.15 K	0.453	18.71
338.15 K	0.524	–
343.15 K	0.587	–

CC(=O)CCC(=O)O + CCCC[N+](CCCC)(CCCC)CCCC.[Cl-]
x1 = 0.75
Settings	electrical conductivity [S/m]	viscosity [mPa·s]
293.15 K	0.035	121.7
298.15 K	0.045	–
303.15 K	0.06	65.6
308.15 K	0.072	–
313.15 K	0.089	36.7
318.15 K	0.113	–
323.15 K	0.129	25.5
328.15 K	0.151	–
338.15 K	0.213	–
